Laboratory results reported in paper PMC2365111, “Cytotoxicity of Poly(Phenolic)Sulfonates and Their Sodium Salts in L1210 Lymphoid Leukemia Cells” (Metal-Based Drugs, 1998).
Converted amounts (≈) assume the structure as drawn.

Key:
[1] = system: KB epidermoid nasopharynx; experiment: Cytotoxicity, KB growth; format: cell-based, human
Source text: (§1) CYTOTOXlCITY OF POLY(PHENOLIC)SULFONATES AND THEIR SODIUM SALTS IN L1210 LYMPHOID LEUKEMIA CELLS Fei Wang, Amy E. Warren, Cheryl R. Barnes and Iris H. Hall* Division of Medicinal Chemistry and Natural Products University of North Carolina Chapel Hill, N.C. […] Because ofthese properties it was surmised that these poly(phenolic)sulfonated compounds may have antineoplastic activity. METHODS Source of Compounds Test compounds were supplied by GeneLabs, Inc. [Redwood City, CA [Table 1]. Radioisotopes were obtained from New England Nuclear [Dupont, Boston, MA]. Substrates and co-factors were purchased om Sigma Chemical Co., [St Louis, MO]. Pentosan sulfate and other antineoplastic standards were obtained from Sigma Chemical Co. Tumor lines were obtained from American Type Culture Collection [Rockville, MD]. […] Cell numbers were determined by the trypan blue exclusion technique. Solid tumor cytotoxicity was determined by Leibovitz et al. 's method utilizing crystal violeeOH and read at 562 nm (Molecular Devices). Values for cytotoxicity were expressed as EDs0 g/ml, i.e. the concentration ofthe compound inhibiting 50% ofcell growth. […] Incorporation of 4C- formate (53.0 mCi/mmol) into pyrimidines was determined by the method of Christopherson et al.[13]. […] DNA polymerase Ot activity was determined in cytoplasmic extracts isolated by Eichler et aL's method. […] Messenger-, ribosomal- and transfer-RNA polymerase enzymes were isolated with different concentrations of ammonium sulfate; individual RNA polymerase activities were determined using 3H -UTP 16,17]. Ribonucleoside reductase activity was measured using 4C -CDP with dithioerythritol. […]

[2] = target: T1, Aspartate transcarbamylase (Mus musculus, UniProt B2RQC6); experiment: Aspartate transcarbamylase activity, L1210; format: biochemical; settings: 60 min, N=6
T1 construct: preparing the appropriate L1210 cell homogenates or subcellular fractions; endogenous in cells; host or cells: L1210 murine lymphoid leukemia cells, homogenate or subcellular fraction
T1 sequence (B2RQC6 whole entry): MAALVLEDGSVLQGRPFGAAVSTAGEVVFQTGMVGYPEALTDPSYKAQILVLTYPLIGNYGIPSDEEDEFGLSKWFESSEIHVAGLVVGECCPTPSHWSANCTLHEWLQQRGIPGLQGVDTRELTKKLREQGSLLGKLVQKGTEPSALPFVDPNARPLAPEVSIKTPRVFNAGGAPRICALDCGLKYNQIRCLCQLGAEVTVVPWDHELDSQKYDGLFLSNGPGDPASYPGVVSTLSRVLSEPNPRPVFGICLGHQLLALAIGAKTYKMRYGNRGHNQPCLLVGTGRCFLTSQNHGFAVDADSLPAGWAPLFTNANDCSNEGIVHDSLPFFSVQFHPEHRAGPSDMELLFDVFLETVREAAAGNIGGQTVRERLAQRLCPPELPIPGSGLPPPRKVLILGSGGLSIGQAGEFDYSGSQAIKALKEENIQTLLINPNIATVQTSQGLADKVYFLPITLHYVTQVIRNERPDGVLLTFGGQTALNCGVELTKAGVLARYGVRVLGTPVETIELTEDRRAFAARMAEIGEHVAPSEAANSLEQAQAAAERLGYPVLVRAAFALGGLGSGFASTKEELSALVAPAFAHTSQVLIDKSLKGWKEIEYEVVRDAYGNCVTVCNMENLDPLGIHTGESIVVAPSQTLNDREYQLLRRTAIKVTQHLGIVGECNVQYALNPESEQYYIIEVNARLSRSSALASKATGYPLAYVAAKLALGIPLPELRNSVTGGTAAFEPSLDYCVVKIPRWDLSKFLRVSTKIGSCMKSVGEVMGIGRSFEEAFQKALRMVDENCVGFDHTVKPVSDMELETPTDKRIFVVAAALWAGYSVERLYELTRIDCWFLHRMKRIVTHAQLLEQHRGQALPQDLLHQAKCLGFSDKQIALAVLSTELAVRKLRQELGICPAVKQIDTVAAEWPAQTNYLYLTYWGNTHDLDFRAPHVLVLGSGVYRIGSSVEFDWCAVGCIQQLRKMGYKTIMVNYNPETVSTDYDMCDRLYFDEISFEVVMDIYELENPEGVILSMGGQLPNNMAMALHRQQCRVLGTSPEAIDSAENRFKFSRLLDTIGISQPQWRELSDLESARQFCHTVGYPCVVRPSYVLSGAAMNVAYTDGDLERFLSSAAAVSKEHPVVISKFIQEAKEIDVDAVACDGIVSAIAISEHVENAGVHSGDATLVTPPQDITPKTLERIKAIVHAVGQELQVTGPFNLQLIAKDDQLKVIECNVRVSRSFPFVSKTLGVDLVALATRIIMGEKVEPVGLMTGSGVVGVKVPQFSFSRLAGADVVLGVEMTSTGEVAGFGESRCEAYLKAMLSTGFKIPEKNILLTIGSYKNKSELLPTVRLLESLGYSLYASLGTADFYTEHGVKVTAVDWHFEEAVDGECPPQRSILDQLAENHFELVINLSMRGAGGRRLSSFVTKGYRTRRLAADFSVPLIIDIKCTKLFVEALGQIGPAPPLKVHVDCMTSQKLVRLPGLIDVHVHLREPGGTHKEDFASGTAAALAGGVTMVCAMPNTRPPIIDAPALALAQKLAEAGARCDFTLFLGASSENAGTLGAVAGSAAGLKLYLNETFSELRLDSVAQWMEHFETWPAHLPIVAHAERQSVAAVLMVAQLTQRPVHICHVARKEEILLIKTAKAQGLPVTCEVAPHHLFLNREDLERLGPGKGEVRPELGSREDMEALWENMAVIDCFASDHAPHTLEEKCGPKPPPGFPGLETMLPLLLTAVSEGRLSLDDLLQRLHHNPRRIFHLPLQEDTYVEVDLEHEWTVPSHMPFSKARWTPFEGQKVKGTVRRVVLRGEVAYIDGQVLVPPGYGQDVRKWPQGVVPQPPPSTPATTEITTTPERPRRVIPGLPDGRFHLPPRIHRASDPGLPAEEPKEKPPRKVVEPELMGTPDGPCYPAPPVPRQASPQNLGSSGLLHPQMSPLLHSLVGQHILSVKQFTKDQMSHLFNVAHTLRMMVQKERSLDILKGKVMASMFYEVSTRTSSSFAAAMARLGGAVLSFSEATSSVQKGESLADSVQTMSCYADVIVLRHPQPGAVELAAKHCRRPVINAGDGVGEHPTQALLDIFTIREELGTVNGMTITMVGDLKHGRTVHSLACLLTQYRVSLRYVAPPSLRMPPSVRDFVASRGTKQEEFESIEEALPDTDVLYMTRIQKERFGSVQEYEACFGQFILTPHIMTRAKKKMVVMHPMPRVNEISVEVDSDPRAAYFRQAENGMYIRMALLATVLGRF
Source text: (§2) CYTOTOXlCITY OF POLY(PHENOLIC)SULFONATES AND THEIR SODIUM SALTS IN L1210 LYMPHOID LEUKEMIA CELLS Fei Wang, Amy E. Warren, Cheryl R. Barnes and Iris H. Hall* Division of Medicinal Chemistry and Natural Products University of North Carolina Chapel Hill, N.C. […] Because ofthese properties it was surmised that these poly(phenolic)sulfonated compounds may have antineoplastic activity. METHODS Source of Compounds Test compounds were supplied by GeneLabs, Inc. [Redwood City, CA [Table 1]. Radioisotopes were obtained from New England Nuclear [Dupont, Boston, MA]. Substrates and co-factors were purchased om Sigma Chemical Co., [St Louis, MO]. Pentosan sulfate and other antineoplastic standards were obtained from Sigma Chemical Co. Tumor lines were obtained from American Type Culture Collection [Rockville, MD]. 147 Vol. 5, No. 3, 1998 Cytotoxicity ofSodium Poly(Phenolic)Sulfonates in L1210 Lymphoid Leukemia Cells Table 1 Structures of Poly(phenolic)sulfonate Compounds O2R" n Compound R' R" n MW # G1-2041 H OH 8 1489.46 G1-2029 H OH 6 1117.09 G1-2030 H OH 4 744.73 GI-2021 CH3 ONa 8 1777.5 G1-2057 CH3 ONa 4 888.75 GI-2158 CH3 ONa 6 1333.13 GI-2063 OCH3 ONa 8 2001.65 G1-2042 OAc ONa 8 2017.73 Cytotoxicity Poly(phenolic)sulfonates were tested for cytotoxic activity by homogenizing drug in 0.05% Tween 80/H20 to give a mg/ml stock concentration. These solutions were sterilized by passing them through an acrodisc ([…]). The following cell lines were maintained by literature techniques: murine L1210 lymphoid leukemia, P-388 lymphocytic leukemia, rat UMR 106 osteosarcoma, human Tmolt3 acute lymphoblastic T cell leukemia, HUT-8 lymphoma, HeLa-S suspended cervical carcinoma, HeLa solid cervical carcinoma, KB epidermoid nasopharynx, A431 epidermoid carcinoma, colorectal adenocarcinoma SW480, HCT-8 ileocecal adenocarcinoma, lung bronchogenic MB-9812, A549 lung carcinoma, and glioma HS683. Geran et al.'s protocol was used to assess the cytotoxicity of the compounds and standards in each cell line. Cell numbers were determined by the trypan blue exclusion technique. Solid tumor cytotoxicity was determined by Leibovitz et al. 's method utilizing crystal violeeOH and read at 562 nm (Molecular Devices). Values for cytotoxicity were expressed as EDs0 g/ml, i.e. the concentration ofthe compound inhibiting 50% ofcell growth. A value of less than 4 µg/ml was required for significant activity ofgrowth inhibition. Incorporation Studies Incorporation of labeled precursors into 3H-DNA, 3H -RNA and 3H -protein for 10 L1210 cells was obtained. The concentration response for inhibition of DNA, RNA and protein synthesis of the compounds at 25, 50 and 100 l.tM was determined for 60 min incubations. Incorporation of 14C -glycine (53.0 mCi/mmol) into purines was obtained by the method of Cadman et al.[12]. Incorporation of 4C- formate (53.0 mCi/mmol) into pyrimidines was determined by the method of Christopherson et al.[13]. Enzyme Assays Inhibition of various enzyme activities was performed by first preparing the appropriate L1210 cell homogenates or subcellular fractions, then adding the drug to be tested during the enzyme assay. For the concentration response studies, inhibition of enzyme activity was determined at 25, 50 and 100 l.tM of compounds G1-2021, G1-2029, GI-2041 and G1-2063 after 60 min incubations. DNA polymerase Ot activity was determined in cytoplasmic extracts isolated by Eichler et aL's method. The DNA polymerase assay was described by Sedwick et al.[15] using 3H-TTP. Messenger-, ribosomal- and transfer-RNA polymerase enzymes were isolated with different concentrations of ammonium sulfate; individual RNA polymerase activities were determined using 3H -UTP 16,17]. Ribonucleoside reductase activity was measured using 4C -CDP with dithioerythritol. The deoxyribonucleotides 4C -dCDP were separated from the ribonucleotides by TLC on PEI plates. […]

[3] = target: T2, Thymidine monophosphate kinase (Mus musculus, UniProt P97930); experiment: TMP kinase activity, L1210; format: biochemical; settings: 60 min, N=6
T2 construct: preparing the appropriate L1210 cell homogenates or subcellular fractions; endogenous in cells; host or cells: L1210 murine lymphoid leukemia cells, homogenate or subcellular fraction
T2 sequence (P97930 1-212): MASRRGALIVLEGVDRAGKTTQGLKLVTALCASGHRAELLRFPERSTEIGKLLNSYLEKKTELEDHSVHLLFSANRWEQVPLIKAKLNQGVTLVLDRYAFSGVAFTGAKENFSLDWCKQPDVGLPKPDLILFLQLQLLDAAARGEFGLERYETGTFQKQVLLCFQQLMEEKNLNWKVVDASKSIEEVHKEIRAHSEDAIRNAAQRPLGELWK
Source text: as §2

[4] = system: L1210 de novo purine synthesis; experiment: 14C-glycine incorporation into purines; format: cell-based, mouse; settings: 60 min, N=6
Source text: as §2

[5] = system: L1210 DNA; experiment: L1210 DNA strand scission, alkaline-sucrose gradient; format: cell-based, mouse; settings: 100 μM, 24 hr
Source text: as §1, with “MO].” for “MO]. Pentosan sulfate and other antineoplastic standards were obtained from Sigma Chemical Co. Tumor lines were obtained from American Type Culture Collection [Rockville, MD].”, “16,17].” for “16,17]. Ribonucleoside reductase activity was measured using 4C -CDP with dithioerythritol.”

[6] = system: HeLa-S suspended cervical carcinoma; experiment: Cytotoxicity, HeLa-S3 growth; format: cell-based, human
Source text: as §1, with “MO].” for “MO]. Pentosan sulfate and other antineoplastic standards were obtained from Sigma Chemical Co. Tumor lines were obtained from American Type Culture Collection [Rockville, MD].”, “16,17].” for “16,17]. Ribonucleoside reductase activity was measured using 4C -CDP with dithioerythritol.”

[7] = system: HeLa solid cervical carcinoma; experiment: Cytotoxicity, solid HeLa growth; format: cell-based, human
Source text: as §1, with “MO].” for “MO]. Pentosan sulfate and other antineoplastic standards were obtained from Sigma Chemical Co. Tumor lines were obtained from American Type Culture Collection [Rockville, MD].”, “16,17].” for “16,17]. Ribonucleoside reductase activity was measured using 4C -CDP with dithioerythritol.”

[8] = system: colorectal adenocarcinoma SW480; experiment: Cytotoxicity, SW480 growth; format: cell-based, human
Source text: as §2, with “Geran et al.'s protocol was used to assess the cytotoxicity of the compounds and standards in each cell line.” left out, “A value of less than 4 µg/ml was required for significant activity ofgrowth inhibition. Incorporation Studies Incorporation of labeled precursors into 3H-DNA, 3H -RNA and 3H -protein for 10 L1210 cells was obtained. The concentration response for inhibition of DNA, RNA and protein synthesis of the compounds at 25, 50 and 100 l.tM was determined for 60 min incubations. Incorporation of 14C -glycine (53.0 mCi/mmol) into purines was obtained by the method of Cadman et al.[12].” left out, “Enzyme Assays Inhibition of various enzyme activities was performed by first preparing the appropriate L1210 cell homogenates or subcellular fractions, then adding the drug to be tested during the enzyme assay. For the concentration response studies, inhibition of enzyme activity was determined at 25, 50 and 100 l.tM of compounds G1-2021, G1-2029, GI-2041 and G1-2063 after 60 min incubations.” left out, “The DNA polymerase assay was described by Sedwick et al.[15] using 3H-TTP.” left out, “dithioerythritol.” for “dithioerythritol. The deoxyribonucleotides 4C -dCDP were separated from the ribonucleotides by TLC on PEI plates.”

[9] = concentration inhibiting 50% of cell growth

Structure (SMILES) | activity, in words [1] | ED50 [1, 9] [µg/mL] | Aspartate transcarbamylase ([2]; 25 μM) | Aspartate transcarbamylase ([2]; 100 μM) | Thymidine monophosphate kinase ([3]; 25 μM) | Thymidine monophosphate kinase ([3]; 50 μM) | Purine de novo synthesis ([4]; 25 μM) | Purine de novo synthesis ([4]; 100 μM) | L1210 DNA fragmentation, in words [5] | Aspartate transcarbamylase ([2]; 50 μM) | Purine de novo synthesis ([4]; 50 μM) | growth suppression, in words [6] | activity, in words [7] | ED50 [7, 9] [µg/mL] | Thymidine monophosphate kinase ([3]; 100 μM) | activity, in words [8] | ED50 [8, 9]
O=S(=O)(O)c1cc2c(O)c(c1)Cc1cc(S(=O)(=O)O)cc(c1O)Cc1cc(S(=O)(=O)O)cc(c1O)Cc1cc(S(=O)(=O)O)cc(c1O)Cc1cc(S(=O)(=O)O)cc(c1O)Cc1cc(S(=O)(=O)O)cc(c1O)Cc1cc(S(=O)(=O)O)cc(c1O)Cc1cc(S(=O)(=O)O)cc(c1O)C2 [GI-2041] | active | 2.60 (≈ 1.75 µM) | 106+5% of Control | 94+5% of Control | 80+5% of Control | 41+3% of Control | 85+5% of Control | 54+3% of Control |  |  |  |  |  |  |  |  | 
O=S(=O)(O)c1cc2c(O)c(c1)Cc1cc(S(=O)(=O)O)cc(c1O)Cc1cc(S(=O)(=O)O)cc(c1O)Cc1cc(S(=O)(=O)O)cc(c1O)Cc1cc(S(=O)(=O)O)cc(c1O)Cc1cc(S(=O)(=O)O)cc(c1O)C2 [GI-2029] |  |  | 100+5% of Control | 98+6% of Control | 118+6% of Control | 50+5% of Control | 130+6% of Control |  | more moderated | 100+5% of Control | 97+6% of Control | best activity |  |  |  |  | 
COc1c2cc(S(=O)(=O)[O-])cc1Cc1cc(S(=O)(=O)[O-])cc(c1OC)Cc1cc(S(=O)(=O)[O-])cc(c1OC)Cc1cc(S(=O)(=O)[O-])cc(c1OC)Cc1cc(S(=O)(=O)[O-])cc(c1OC)Cc1cc(S(=O)(=O)[O-])cc(c1OC)Cc1cc(S(=O)(=O)[O-])cc(c1OC)Cc1cc(S(=O)(=O)[O-])cc(c1OC)C2.[Na+].[Na+].[Na+].[Na+].[Na+].[Na+].[Na+].[Na+] [GI-2021] |  |  | 101+6% of Control | 98+4% of Control | 110+6% of Control |  | 121+6% of Control | 74+6% of Control | more evident | 100+5% of Control | 118+4% of Control |  | effective | 1.97 | 32+3% of Control | active | less than 2 μg/ml
